Experimental data published in US10028960B2, “Pyrimidine compounds as JAK kinase inhibitors” (THERAVANCE BIOPHARMA R&D IP, LLC, priority 2016, dated 2018).

These compounds were tested against JAK1 (Homo sapiens (Human), UniProt P23458) (assay: LanthaScreen JAK biochemical assay, JAK1). Details: not given.
Method: A panel of four LanthaScreen JAK biochemical assays (JAK1, 2, 3 and Tyk2) were carried in a common kinase reaction buffer (50 mM HEPES, pH 7.5, 0.01% Brij-35, 10 mM MgCl2, and 1 mM EGTA). Recombinant GST-tagged JAK enzymes and a GFP-tagged STAT1 peptide substrate were obtained from Life Technologies.

Chain of JAK1 (P23458 whole entry): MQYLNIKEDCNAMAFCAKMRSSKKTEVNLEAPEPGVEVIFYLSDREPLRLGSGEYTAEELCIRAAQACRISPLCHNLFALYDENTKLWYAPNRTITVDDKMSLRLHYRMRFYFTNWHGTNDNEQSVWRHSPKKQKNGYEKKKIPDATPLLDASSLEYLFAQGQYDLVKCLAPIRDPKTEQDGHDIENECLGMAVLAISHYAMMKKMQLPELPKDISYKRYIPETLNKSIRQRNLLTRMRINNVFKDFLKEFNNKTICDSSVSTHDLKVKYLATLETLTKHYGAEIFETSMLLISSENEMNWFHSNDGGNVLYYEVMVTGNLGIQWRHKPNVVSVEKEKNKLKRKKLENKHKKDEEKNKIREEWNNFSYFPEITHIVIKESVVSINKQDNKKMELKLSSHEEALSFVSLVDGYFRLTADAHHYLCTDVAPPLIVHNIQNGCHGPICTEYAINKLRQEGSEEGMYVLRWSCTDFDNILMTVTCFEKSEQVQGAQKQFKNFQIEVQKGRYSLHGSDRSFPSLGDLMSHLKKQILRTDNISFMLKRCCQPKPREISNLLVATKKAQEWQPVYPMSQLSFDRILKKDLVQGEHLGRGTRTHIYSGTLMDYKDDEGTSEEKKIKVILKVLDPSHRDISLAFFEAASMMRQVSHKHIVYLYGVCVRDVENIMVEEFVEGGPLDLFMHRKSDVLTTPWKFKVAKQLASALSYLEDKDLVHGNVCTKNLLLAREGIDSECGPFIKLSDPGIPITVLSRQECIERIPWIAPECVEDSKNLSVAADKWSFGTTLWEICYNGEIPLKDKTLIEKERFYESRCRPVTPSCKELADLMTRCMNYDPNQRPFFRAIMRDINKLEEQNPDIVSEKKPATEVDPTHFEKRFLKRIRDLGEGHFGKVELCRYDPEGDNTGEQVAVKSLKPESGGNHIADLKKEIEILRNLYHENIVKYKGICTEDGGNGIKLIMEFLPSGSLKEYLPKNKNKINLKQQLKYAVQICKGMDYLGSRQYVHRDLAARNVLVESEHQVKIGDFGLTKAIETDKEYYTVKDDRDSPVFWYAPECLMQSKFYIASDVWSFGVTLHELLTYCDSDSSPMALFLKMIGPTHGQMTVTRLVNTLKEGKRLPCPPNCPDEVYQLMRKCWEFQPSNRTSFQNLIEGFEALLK

SMILES | JAK 1 (pKi)
COc1cc(Nc2cc(CO)[nH]n2)nc(N[C@@H]2C[C@H]3CCC[C@@H](C2)N3S(=O)(=O)c2cncc(F)c2)n1 [Example 1-7, (3-((2-(((1R,3s,5S)-9-((5-fluoropyridin-3-yl)sulfonyl)-9-azabicyclo[3.3.1]nonan-3-yl)amino)-6-methoxypyrimidin-4-yl)amino)-1H-pyrazol-5-yl)methanol] | B (B represents a pKi value between 9 and 10 (Ki between 1 nM and 0.1 nM))
COc1cc(Nc2cc(CO)[nH]n2)nc(N[C@@H]2C[C@H]3CCC[C@@H](C2)N3S(=O)(=O)CC2CC2)n1 [Example 1-10, (3-((2-(((1R,3s,5S)-9-((cyclopropylmethyl)sulfonyl)-9-azabicyclo[3.3.1]nonan-3-yl)amino)-6-methoxypyrimidin-4-yl)amino)-1H-pyrazol-5-yl)methanol] | B (B represents a pKi value between 9 and 10 (Ki between 1 nM and 0.1 nM))
COc1cc(Nc2cc(CO)[nH]n2)nc(N(C)[C@@H]2C[C@H]3CCC[C@@H](C2)N3S(=O)(=O)CC2CC2)n1 [Example 1-18, (3-((2-(((1R,3s,5S)-9-((cyclopropylmethyl)sulfonyl)-9-azabicyclo[3.3.1]nonan-3-yl)(methyl)amino)-6-methoxypyrimidin-4-yl)amino)-1H-pyrazol-5-yl)methanol] | B (B represents a pKi value between 9 and 10 (Ki between 1 nM and 0.1 nM))
COc1cc(Nc2cc(CO)[nH]n2)nc(N[C@@H]2C[C@H]3CCC[C@@H](C2)N3C(=O)C(F)F)n1 [Example 3-1, 2,2-difluoro-1-((1R,3s,5S)-3-((4-((5-(hydroxymethyl)-1H-pyrazol-3-yl)amino)-6-methoxypyrimidin-2-yl)amino)-9-azabicyclo[3.3.1]nonan-9-yl)ethan-1-one] | B (B represents a pKi value between 9 and 10 (Ki between 1 nM and 0.1 nM))

Same assay, conditions: read-out: JAK 1 (pKi) (converted)

SMILES | Ki [nM]
COc1cc(Nc2cc(CO)[nH]n2)nc(N[C@@H]2C[C@H]3CC[C@@H](C2)N3S(=O)(=O)c2ccccc2)n1 [Example 1-4] | 10 to 31.6
COc1cc(Nc2cc(CO)[nH]n2)nc(N[C@@H]2C[C@H]3CCC[C@@H](C2)N3Cc2ccc(C#N)nc2)n1 [Example 6, 5-(((1R,3s,5S)-3-((4-((5-(hydroxymethyl)-1H-pyrazol-3-yl)amino)-6-methoxypyrimidin-2-yl)amino)-9-azabicyclo[3.3.1]nonan-9-yl)methyl)picolinonitrile] | 0.1 to 1
